Measurements taken from patent US20200390729A1, “OPHTHALMIC TOPICAL COMPOSITION COMPRISING DOBESILIC ACID FOR TREATING DISEASES OF THE POSTERIOR SEGMENT OF THE EYE” (LABORATORIOS SALVAT, S.A., priority 2017, published 2020).
Like-named read-outs stand apart in the source and are kept apart here.

Test: Ocular distribution of CDO following 28-day topical ocular repeated dose in diabetic rats
Type: in vivo
Details: rat, retina, day 29, 0.25 h after single instillation, read-out: CDO μg/g tissue Retina
Description: 28-day repeated dose study in the diabetic rats was performed to assess CDO levels in retina at the steady state. CDO compositions 2 and 5 of Example 1 were administered by topical ocular instillation (10 μl/eye) TID for 28 days. At day 29 CDO was instilled a single time and retinas were collected 15 minutes post-administration.
As described in Example 2.

O=S(=O)(O)c1cc(O)ccc1O [CDO, Calcium dobesilate monohydrate]
concentration at 0.25 h (0.1 mg/eye, topical eye 28 days (3 administrations/day, 10 μl/eye) 10 mg/ml): 19.5 µg/g | concentration at 0.25 h (1 mg/eye, topical eye 28 days (3 administrations/day, 10 μl/eye) 100 mg/ml): 218 µg/g
